Experiments:
[1] = target: T1, ΔSHP2 (Homo sapiens, UniProt Q06124); test: PTPs activity assay (DiFMUP); format: biochemical
T1 construct: His‐ΔSHP2, encompassing the peptide from amino acids 205–593 retaining PTP activity; His; made in house; host or cells: E. coli
T1 sequence (Q06124 205-593): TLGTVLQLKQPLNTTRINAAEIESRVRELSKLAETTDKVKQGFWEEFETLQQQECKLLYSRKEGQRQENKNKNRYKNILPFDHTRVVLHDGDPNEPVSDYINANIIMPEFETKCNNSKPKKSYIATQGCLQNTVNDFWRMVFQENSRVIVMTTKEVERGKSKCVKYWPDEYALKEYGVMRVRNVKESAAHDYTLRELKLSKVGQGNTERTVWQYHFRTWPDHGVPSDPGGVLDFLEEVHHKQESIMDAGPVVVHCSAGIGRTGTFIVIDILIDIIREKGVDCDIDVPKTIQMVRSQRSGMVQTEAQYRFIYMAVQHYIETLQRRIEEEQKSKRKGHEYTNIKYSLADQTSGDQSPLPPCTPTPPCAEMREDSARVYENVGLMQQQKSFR

[2] = test system: NCI‐H2122 tumor; test: NCI-H2122 subcutaneous transplantation tumor model; format: in vivo, BALB/c‐nu mouse; conditions: i.p., q2d
Description: NCI‐H2122 cells in the logarithmic growth phase were collected by mixing serum‐free RMPI‐1640 medium and Matrigel matrix gel, and injected subcutaneously into the right axilla of thymus‐less male BALB/c‐nu nude mice. Tumor volume was calculated according to V = ab^2/2 (where a and b are the long and short diameters of the tumor, respectively), and body weight was recorded every 3 days. When the tumor volume reached 100 mm^3, the mice were randomly divided into six groups (ten mice in each group): Control group (i.p, q2d), SHP099 (20 mg kg^−1, i.p, q2d) group, GDC‐0152 (20 mg kg^−1, i.p, q2d) group, SHP099 (20 mg kg^−1, i.p, q2d) + GDC‐ 0152 (20 mg kg^−1, i.p, q2d) co‐administration group, embelin (20 mg kg^−1, i.p, q2d) medium‐dose group and embelin (30 mg kg^−1, i.p, q2d) high‐dose group. When the tumor volume reached 1000 mm^3, all experimental mice were sacrificed, and tumor tissues and major organs, such as the heart, liver, spleen, lungs, and kidneys, were collected for further study.

[3] = test system: NCI‐H2122 cells; test: Cell cycle assay; format: cell-based, human; conditions: embelin 15 µM or SHP099 10 µM for 72 h
Description: NCI-H2122 cells treated with given disposal were washed with pre-cooled PBS, fixed
with ice pre-cooled 70% ethanol at 4℃ for 2 h. And then PI staining solution (containing
RNaseA) was incubated in dark at 37℃ for 30 min. Red fluorescence and light scattering
were detected by flow cytometry at 488 nm. Cell cycle results were analyzed and visualized
using ModFit LT and FlowJo software. […]
(§1) (1 picture or pasted object on this page, not shown here)

[4] = test system: NCI‐H2122 cells; test: Apoptosis detection (Annexin-V-FITC/PI); format: cell-based, human; conditions: 24 h
Description: NCI-H2122 cells treated with the given disposal were digested with trypsin, resuspended
in cold PBS, and centrifuged at room temperature (1000×g for 5 min) to discard the
supernatant. Approximately 100,000 cells were collected and 195 μL of Annexin V-FITC
conjugate was added to gently resuspend the cells and then 5 μL of Annexin V-FITC and 10
μL of propidium iodide (PI) staining solution were added respectively. They were then
incubated at 37 °C for 10-20 min in the dark, placed on ice, and passed through a flow
cytometer (Becton, Dickinson, Calibur, USA) for online detection. […]
as §1

SMILES	IC50 [1]	effect on body weight of the mice [2]	effect on weights of hearts, livers, lungs, and kidneys and structure of hearts and kidneys [2]	effect on tumor growth in vivo ([2]; embelin 20 and 30 mg kg^−1, GDC‐0152 20 mg kg^−1 + SHP099 20 mg kg^−1)	effect on cell cycle [3]	effect on apoptosis [4]
CCCCCCCCCCCC1=C(O)C(=O)C=C(O)C1=O [Embelin]	10.5 µM	little or no effect on the body weight	no significant effect	significantly inhibited the tumor growth rate	blocked the G2/M cycle	increased the proportion of early and late apoptotic cells
O=C1Nc2ccc(I)cc2/C1=C/c1cc(Br)c(O)c(Br)c1 [S2872, GW5074]	33.8 µM	–	–	–	–	–
CC1(N)CCN(c2cnc(-c3cccc(Cl)c3Cl)c(N)n2)CC1 [SHP099]	–	little or no effect on the body weight	no significant effect	–	had no effect	promoted apoptosis
